Where two headings read alike, the source gives them in different places.
How the values were obtained:
[1] = system: MYC protein expression in MCF-7 breast cancer cells; assay: Western blotting of MYC protein level in MCF-7 cells; assay type: cell-based, human; details: Homo sapiens, MCF7; western blotting, MCF-7 cells, 0.5, 1, 2, and 4 μM, 24 hours; read-out: MYC Inhibition
Procedure, shortened: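 MCF-7 cells were exposed to compounds at 0.5, 1, 2 and 4 μM for 24 hours at 37° C. MYC was detected by immunoblot with ECL, using rabbit anti-MYC (1:1000) and anti-GAPDH (1:2000) as loading control.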

NCI-60 cancer cell lines = assay: NCI-60 cancer cell line drug screen (GI50, MGM); assay type: cell-based, human; details: Homo sapiens; for GI50: read-out: Antiproliferative Activities [GI50 (μM)]
Description: Cancer cells were incubated with the test compounds at five concentrations ranging from 100 μM to 10 nM for 48 h. […] The approximate average of GI50 values across the entire panel of NCI-60 cancer cell lines for each compound was recorded as the MGM value.

human topoisomerase I = molecular target: T1, human topoisomerase I (Homo sapiens, UniProt P11387); details: relative topoisomerase I inhibition levels, previously determined, six levels (0 - 5, +++++ = 5); cited from earlier work
T1 sequence (P11387 1-765): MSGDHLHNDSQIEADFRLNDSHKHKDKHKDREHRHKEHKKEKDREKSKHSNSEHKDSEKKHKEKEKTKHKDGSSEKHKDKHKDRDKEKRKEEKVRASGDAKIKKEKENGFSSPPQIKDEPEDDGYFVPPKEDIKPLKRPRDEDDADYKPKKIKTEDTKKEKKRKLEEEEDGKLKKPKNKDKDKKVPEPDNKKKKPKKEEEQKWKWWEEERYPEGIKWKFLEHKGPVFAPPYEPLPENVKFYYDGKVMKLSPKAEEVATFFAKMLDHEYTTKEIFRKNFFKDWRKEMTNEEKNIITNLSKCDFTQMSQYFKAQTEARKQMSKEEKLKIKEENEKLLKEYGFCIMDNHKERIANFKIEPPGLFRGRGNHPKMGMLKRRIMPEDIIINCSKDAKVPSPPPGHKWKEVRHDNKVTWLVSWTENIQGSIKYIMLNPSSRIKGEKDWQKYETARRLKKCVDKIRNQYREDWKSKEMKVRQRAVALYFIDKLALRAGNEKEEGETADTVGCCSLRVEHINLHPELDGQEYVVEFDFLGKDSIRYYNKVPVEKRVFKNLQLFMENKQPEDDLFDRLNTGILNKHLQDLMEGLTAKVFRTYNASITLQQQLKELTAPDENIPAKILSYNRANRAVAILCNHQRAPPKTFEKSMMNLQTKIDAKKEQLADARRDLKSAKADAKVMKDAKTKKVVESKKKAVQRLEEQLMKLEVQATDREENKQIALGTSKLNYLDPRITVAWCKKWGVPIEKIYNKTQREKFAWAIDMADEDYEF

COc1cc2c(cc1O)-c1c(c3ccc([N+](=O)[O-])cc3c(=O)n1CCCN)C2=O [Compound 38]
minimal effective concentration [1]: 4 µM
GI50 (NCI-60 cancer cell lines; 786-0, Renal Cancer, 786-0): 0.34 µM
GI50 (NCI-60 cancer cell lines; A498, Renal Cancer, A498): 0.96 µM
GI50 (NCI-60 cancer cell lines; A549, Non-Small Cell Lung Cancer, A549/ATCC): 1.31 µM
GI50 (NCI-60 cancer cell lines; ACHN, Renal Cancer, ACHN): 0.28 µM
GI50 (NCI-60 cancer cell lines; BT-549, Breast Cancer, BT-549): 0.36 µM
GI50 (NCI-60 cancer cell lines; CAKI-1, Renal Cancer, CAKI-1): 0.29 µM
GI50 (NCI-60 cancer cell lines; CCRF-CEM, Leukemia, CCRF-CEM): 0.11 µM
GI50 (NCI-60 cancer cell lines; COLO 205, Colon Cancer, COLO 205): 0.69 µM
GI50 (NCI-60 cancer cell lines; DU-145, Prostate Cancer, DU-145): 0.43 µM
GI50 (NCI-60 cancer cell lines; HCC 2998, Colon Cancer, HCC-2998): 0.62 µM
GI50 (NCI-60 cancer cell lines; HCT-15, Colon Cancer, HCT-15): 1.49 µM
GI50 (NCI-60 cancer cell lines; HCT-116, Colon Cancer, HCT-116): 0.15 µM
GI50 (NCI-60 cancer cell lines; HL-60, Leukemia, HL-60(TB)): 1.48 µM
GI50 (NCI-60 cancer cell lines; HOP-62, Non-Small Cell Lung Cancer, HOP-62): 0.46 µM
GI50 (NCI-60 cancer cell lines; HOP-92, Non-Small Cell Lung Cancer, HOP-92): 1.34 µM
GI50 (NCI-60 cancer cell lines; HT-29, Colon Cancer, HT29): 0.48 µM
GI50 (NCI-60 cancer cell lines; IGROV-1, Ovarian Cancer, IGROV1): 1.24 µM
GI50 (NCI-60 cancer cell lines; K562, Leukemia, K-562): 0.77 µM
GI50 (NCI-60 cancer cell lines; KM12, Colon Cancer, KM12): 1.34 µM
GI50 (NCI-60 cancer cell lines; LOX IMVI, Melanoma, LOX IMVI): 0.3 µM
GI50 (NCI-60 cancer cell lines; Leukemia, SR): 0.04 µM
GI50 (NCI-60 cancer cell lines; MCF7, Breast Cancer, MCF7): 0.16 µM
GI50 (NCI-60 cancer cell lines; MDA-MB-231, Breast Cancer, MDA-MB-231/ATCC): 1.57 µM
GI50 (NCI-60 cancer cell lines; MDA-MB-435, Melanoma, MDA-MB-435): 1.3 µM
GI50 (NCI-60 cancer cell lines; MDA-MB-468, Breast Cancer, MDA-MB-468): 0.24 µM
GI50 (NCI-60 cancer cell lines; MOLT-4, Leukemia, MOLT-4): 0.15 µM
GI50 (NCI-60 cancer cell lines; Malme-3M, Melanoma, MALME-3M): 2.16 µM
GI50 (NCI-60 cancer cell lines; Melanoma, M14): 0.46 µM
GI50 (NCI-60 cancer cell lines; NCI-H23, Non-Small Cell Lung Cancer, NCI-H23): 0.38 µM
GI50 (NCI-60 cancer cell lines; NCI-H226, Non-Small Cell Lung Cancer, NCI-H226): 1.18 µM
GI50 (NCI-60 cancer cell lines; NCI-H322M, Non-Small Cell Lung Cancer, NCI-H322M): 1.39 µM
GI50 (NCI-60 cancer cell lines; NCI-H460, Non-Small Cell Lung Cancer, NCI-H460): 0.37 µM
GI50 (NCI-60 cancer cell lines; NCI-H522, Non-Small Cell Lung Cancer, NCI-H522): 0.78 µM
GI50 (NCI-60 cancer cell lines; OVCAR-3, Ovarian Cancer, OVCAR-3): 1.69 µM
GI50 (NCI-60 cancer cell lines; OVCAR-4, Ovarian Cancer, OVCAR-4): 1.11 µM
GI50 (NCI-60 cancer cell lines; OVCAR-5, Ovarian Cancer, OVCAR-5): 1.67 µM
GI50 (NCI-60 cancer cell lines; OVCAR-8, Ovarian Cancer, OVCAR-8): 1.01 µM
GI50 (NCI-60 cancer cell lines; Ovarian Cancer, NCl/ADR-RES): 2.55 µM
GI50 (NCI-60 cancer cell lines; Prostate Cancer, PC-3): 0.64 µM
GI50 (NCI-60 cancer cell lines; RPMI-8226, Leukemia, RPMI-8226): 1.02 µM
GI50 (NCI-60 cancer cell lines; RXF 393, Renal Cancer, RXF 393): 1.13 µM
GI50 (NCI-60 cancer cell lines; Renal Cancer, U0-31): 0.69 µM
GI50 (NCI-60 cancer cell lines; SF-268, CNS Cancer, SF-268): 0.55 µM
GI50 (NCI-60 cancer cell lines; SF-295, CNS Cancer, SF-295): 0.28 µM
GI50 (NCI-60 cancer cell lines; SF-539, CNS Cancer, SF-539): 0.67 µM
GI50 (NCI-60 cancer cell lines; SK-MEL-2, Melanoma, SK-MEL-2): 2.18 µM
GI50 (NCI-60 cancer cell lines; SK-MEL-5, Melanoma, SK-MEL-5): 1.26 µM
GI50 (NCI-60 cancer cell lines; SK-MEL-28, Melanoma, SK-MEL-28): 1.88 µM
GI50 (NCI-60 cancer cell lines; SK-OV-3, Ovarian Cancer, SK-OV-3): 1.15 µM
GI50 (NCI-60 cancer cell lines; SN12C, Renal Cancer, SN12C): 0.45 µM
GI50 (NCI-60 cancer cell lines; SNB-19, CNS Cancer, SNB-19): 1.08 µM
GI50 (NCI-60 cancer cell lines; SNB-75, CNS Cancer, SNB-75): 0.16 µM
GI50 (NCI-60 cancer cell lines; SW-620, Colon Cancer, SW-620): 0.34 µM
GI50 (NCI-60 cancer cell lines; T47D, Breast Cancer, T-47D): 0.7 µM
GI50 (NCI-60 cancer cell lines; TK-10, Renal Cancer, TK-10): 1.85 µM
GI50 (NCI-60 cancer cell lines; U-251, CNS Cancer, U251): 0.33 µM
GI50 (NCI-60 cancer cell lines; UACC-62, Melanoma, UACC-62): 0.95 µM
GI50 (NCI-60 cancer cell lines; UACC-257, Melanoma, UACC-257): 1.57 µM
mean GI50 across NCI-60 panel (MGM) (NCI-60 cancer cell lines; average of GI50 values across the entire panel of NCI-60 cancer cell lines): 660 nM
Top1 Inhibiton (human topoisomerase I): ++ (medium inhibition, ++, MYC expression inhibited at 2.0 μM, or no clear dose-dependent MYC inhibition)

Source: patent US20210382058A1, “PATIENT SELECTION FOR TREATMENT OF MYC POSITIVE CANCERS WITH INDENOISOQUINOLINES” (Purdue Research Foundation, priority 2020, published 2021)
